This note sets out measurements from patent US4119710A, “Bronchospasmolytic 1-(p-amino-phenyl)-2-amino-ethanols-(1) and salts” (Boehringer Ingelheim GmbH, priority 1972, dated 1978).

The target in one data set is T1, β1 -receptors (Felis catus, UniProt Q9TST6).
T1 construct: tested on anesthetized cats; from tissue; host or cells: living anesthetized cat, heart (heart rate)
Nature of the data set: β1-blocking activity: antagonism to tachycardia provoked by N-isopropyl-noradrenalin sulfate in anesthetized cats. As to conditions: cat, iv, d(+)-isomers, tachycardia by 1.0 γ/kg i.v. N-isopropyl-noradrenalin sulfate (Table III), read-out: Blocking Action on β1 -receptors ED50. It counts as in vivo. On the procedure:
(§1) The compounds of this invention were tested for toxicity and with regard to their action on the β-receptors in warm-blooded animals, such as cats and guinea pigs, by the methods described below, and the following test results were obtained for representative species of the genus, where
The β1 -blocking activity was tested on anesthetized cats as antagonism to tachycardia provoked by a standard dose of 1.0 γ/kg i.v. of N-isopropyl-noradrenalin sulfate. From the average percentage reduction in heart rate acceleration caused by N-isopropyl-noradrenalin sulfate, obtained by various doses of the test compound in question, a median effective dose (ED50) was determined by graphic extrapolation (see Tables II and III).

Another data set addresses T2, β2 -receptors (Cavia porcellus, UniProt Q8K4Z4).
T2 construct: tested on anesthetized guinea pigs; from tissue; host or cells: living anesthetized guinea pig, airways (Konzett-Rossler)
Nature of the data set: β2-blocking activity: antagonism to broncholytic activity of N-isopropyl-noradrenalin sulfate in anesthetized guinea pigs (Konzett-Rossler). The conditions noted are these: guinea pig, iv, d(+)-isomers, 5 γ/kg i.v. N-isopropyl-noradrenalin sulfate after 20 γ/kg i.v. acetylcholine (Table III), read-out: Blocking Action on β2 -receptors ED50. It counts as in vivo. On the procedure: as §1
The β2 -blocking activity was tested on anesthetized guinea pigs as antagonism to the broncholytic activity which is observed upon administration of 5 γ/kg body weight i.v. of N-isopropyl-noradrenalin sulfate in the test arrangement according to Konzett-Rossler, following the inducement of a bronchospasm caused by a standard dose of 20 γ/kg body weight i.v. of acetylcholine (see Table III).

A short description of data set [1]: acute toxicity in mice (LD50, Litchfield and Wilcoxon). As to conditions: mouse, in vivo, iv, groups of 10, i.v., deaths within 14 days, d(+)-isomers (Table III), read-out: acute toxicity LD50 (Table III). As to the method: as §1
The acute toxicity of the compounds was determined on groups of 10 mice.

Counter-ions that a name gives are not always drawn.

T1 sequence (Q9TST6 whole entry): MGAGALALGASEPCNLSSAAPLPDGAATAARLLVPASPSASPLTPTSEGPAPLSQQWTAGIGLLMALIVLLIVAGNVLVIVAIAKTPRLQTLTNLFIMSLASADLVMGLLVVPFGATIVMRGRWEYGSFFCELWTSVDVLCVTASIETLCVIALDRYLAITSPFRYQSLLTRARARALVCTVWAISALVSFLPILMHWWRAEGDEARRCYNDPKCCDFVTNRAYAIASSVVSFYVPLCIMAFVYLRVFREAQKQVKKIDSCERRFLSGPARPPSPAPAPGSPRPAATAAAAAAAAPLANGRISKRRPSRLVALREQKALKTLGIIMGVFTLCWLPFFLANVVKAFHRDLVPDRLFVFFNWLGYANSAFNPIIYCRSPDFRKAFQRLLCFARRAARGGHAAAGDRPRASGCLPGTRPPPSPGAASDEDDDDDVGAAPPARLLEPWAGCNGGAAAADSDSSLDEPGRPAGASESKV
T2 sequence (Q8K4Z4 whole entry): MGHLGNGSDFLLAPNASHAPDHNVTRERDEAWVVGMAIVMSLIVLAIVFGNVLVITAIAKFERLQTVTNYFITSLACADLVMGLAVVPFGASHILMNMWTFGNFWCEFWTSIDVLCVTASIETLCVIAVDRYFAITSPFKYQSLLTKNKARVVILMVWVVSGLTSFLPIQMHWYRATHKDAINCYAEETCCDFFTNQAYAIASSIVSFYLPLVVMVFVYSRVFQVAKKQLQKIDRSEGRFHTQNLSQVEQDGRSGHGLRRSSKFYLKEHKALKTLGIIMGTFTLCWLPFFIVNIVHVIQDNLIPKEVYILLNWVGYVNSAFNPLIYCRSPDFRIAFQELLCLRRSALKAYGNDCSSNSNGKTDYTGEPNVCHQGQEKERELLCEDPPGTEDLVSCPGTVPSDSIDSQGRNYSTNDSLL

`CC(C)(C)NCC(O)c1cc(F)c(N)c(Br)c1` (single isomer, unassigned) [A-d(+), d-1-(4'-amino-3'-bromo-5'-fluoro-phenyl)-2-tert.butylamino-ethanol hydrochloride]: the ED50 is 0.0084 mg/kg on β1 -receptors and more than 2 mg/kg at β2 -receptors. Also, in data set [1], the LD50 at 336 h amounted to 37.2 mg/kg.
As to `CC(C)(C)NCC(O)c1cc(F)c(N)c(Cl)c1` (single isomer, unassigned) [D-d(+), d-1-(4'-Amino-3'-chloro-5'-fluoro-phenyl)-2-tert.butylamino-ethanol], the values for the ED50 on β1 -receptors and on β2 -receptors were 0.0062 mg/kg and more than 2 mg/kg, respectively. Further, the 50% lethal dose (LD50) at 336 h in data set [1] is 34.2 mg/kg.
On to `CC(C)(C)NCC(O)c1ccc(N)c(F)c1` (single isomer, unassigned) [E-d(+), d-1-(4'-amino-3'-fluoro-phenyl)-2-tert.butylamino-ethanol hydrochloride], for which the median effective dose (ED50) on β1 -receptors is 0.0015 mg/kg; on β2 -receptors, more than 2 mg/kg.
Turning to `CC(C)(C)NCC(O)c1cc(Cl)c(N)c(C(F)(F)F)c1` (single isomer, unassigned) [G-d(+), d-1-(4'-Amino-3'-chloro-5'-trifluoromethyl-phenyl)-2-tert.butylamino-ethanol], the ED50 at β1 -receptors was 0.0125 mg/kg; on β2 -receptors, more than 2 mg/kg. Also, in data set [1], the 50% lethal dose (LD50) at 336 h is 33.2 mg/kg.

Broadly, the ED50 is the midpoint of the dose-response relation. The term LD50 denotes the dose at which mortality reaches 50%.
